Measured values: US6911468B2, “Tyrosine phosphatase inhibitors” (Takeda Chemical Industries, Ltd., priority 2000, dated 2005)

System: not given
Assay: not given
Conditions: not given

melting point	Structure (SMILES)
> 300 °C	O=C(O)/C=C/c1ccc(-c2cccn2-c2ccc(/C=C/C(=O)O)cc2)cc1 [Example 12, (E)-3-[4-(1-{4-[(E)-3-Hydroxy-3-oxo-1-propenyl]phenyl}-1H-pyrrol-2-yl)phenyl]-2-propenoic acid]
132 to 133 °C	CCCCCCCCCCNC(=O)c1cc(-c2ccc(O[C@H](Cc3ccccc3)C(=O)O)cc2)n(CCc2ccc(Br)cc2)c1C [Example 118, (2R)-2-{4-[1-(4-Bromophenethyl)-4-(decylaminocarbonyl)-5-methyl-1H-pyrrol-2-yl]phenoxy}-3-phenylpropanoic acid]

Molecular target: T1, PTP1B (Homo sapiens, UniProt P18031)
T1 construct: in order to express 1-321 amino acid region encoding enzyme active domain of PTP1B; made in house; host or cells: E. coli BL21 DE3 pLysS
T1 sequence (P18031 1-321): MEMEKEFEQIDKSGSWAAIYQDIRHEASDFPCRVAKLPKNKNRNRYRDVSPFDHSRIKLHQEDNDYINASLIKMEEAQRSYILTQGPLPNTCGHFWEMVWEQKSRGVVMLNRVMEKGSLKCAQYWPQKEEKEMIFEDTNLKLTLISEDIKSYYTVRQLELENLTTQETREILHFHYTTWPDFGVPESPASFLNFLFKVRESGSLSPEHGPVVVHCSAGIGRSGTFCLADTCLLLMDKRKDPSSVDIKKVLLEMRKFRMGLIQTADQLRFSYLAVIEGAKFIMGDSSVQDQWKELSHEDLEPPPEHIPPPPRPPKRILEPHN
Assay: Measurement of PTP1B Inhibitory Activity (dephosphorylation of p-nitrophenylphosphate, absorbance at 405 nm)
Type: biochemical
Conditions: PTP1B enzyme active domain (1-321 amino acid, 6 histidine residues at C-terminal), pNPP substrate, pH 6.5, 37° C. for 1 hour
Protocol: Based on the sequence of human PTP-1B registered in Genbank (M31724) database, primer 1 and primer 2 were synthesized, and PTP1B cDNA was amplified from human skeletal muscle cDNA library (Clonetech, Inc. HL5002a) according to PCR method using these primers. The cycle of reactions at 98° C. for 10 seconds, at 58° C. for 30 seconds and at 72° C. for 90 seconds was repeated 35 cycles. The PCR reaction product (1322 bp) was cloned to pT7 Blue-T vector (Novagen, Inc.) to identify the base sequence.
Human PTP 1B cDNA (1322 bp) (100 ng) was amplified with primer 3 and primer 4 in order to express 1-321 amino acid region encoding enzyme active domain of PTP1B. The PCR reaction product (976 bp) was cloned to pT7 Blue-T vector (Novagen, Inc.) to identify the base sequence.
The pT7 Blue-T vector-human PTP1B cDNA (976 bp) was cleaved with restriction enzymes NdeI and SalI (Takara Shuzo Co., Ltd.) and subjected to electrophoresis using 0.7% agarose gel, and a 969 bp fragment was excised and purified. The fragment was introduced into pET32a (+) vector (Novagen, Inc.) cleaved with restriction enzymes NdeI and XhoI (Takara Shuzo Co., Ltd.), to constitute a vector pET32a (+)-human PTP1B cDNA (969 bp), which expresses PTP1B (321 amino acid) with 6 histidine residues binded to a C-terminal thereof under a control of T7 lac promotor.
E.coli BL21 DE3 pLysS (Novagen, Inc.) was transformed with the pET32a (+)-human PTP 1B cDNA (969 bp) to give an ampicillin (50 μg/ml) resistant bacterium. This was shake cultured at 37° C. using 5L of 2xYT medium (ampicillin (50 μg/ml)). When OD600nm reached to 0.5, IPTG (Isopropyl b-D-Thiogalactoside) was added to the culture medium so as to be 1 mM in order to induce the expression of protein, and this medium was further cultured at 37° C. overnight. The bacterium was collected by centrifugation (8000 rpm, 10 minutes, 4° C.).
The bacterium was suspended in lysis buffer (50 ml) (20 mM Tris HCl (pH 8.0), 0.5 M NaCl, 1 mM PMSF, 5 mM benzamidine, Lysozyme 5 mg) and crushed by sonication. To the supernatant after centrifuging (12000 rpm, 10 minutes, 4° C.) was added imidazole so as to be 50 mM and the mixture was mixed with His Bind resin (Novagen, Inc.) binded with Ni ion (4° C., overnight). The mixture was washed with 200 ml of (20 mM Tris HCl (pH 8.0), 0.5 M NaCl, 1 mM PMSF, 5 mM benzamidine, 50 mM imidazole), eluted with (20 mM Tris HCl (pH 8.0), 0.5 M NaCl, 1 mM PMSF, 5 mM benzamidine, 400 mM imidazole) and concentrated by centrifugation using Ultrafree-15 Biomax-50 (MILLIPORE Corp.) (11 mg/ml, 4ml). The purified protein (PTP1B) was identified by Western blotting method using SDS-PAGE, coomassie Blue stain and anti-PTP1B antibody (UBI Inc.).
The PTP1B inhibitory activity of the test compound was evaluated by measuring the ability of the test compound to dephosphorylate p-nitrophenylphosphate (pNPP) (a change of the absorbance at 405 nm).
To a buffer for measurement of the activity (0.1 M sodium acetate (pH 6.5), 1 mM EDTA, 10 mM DTT) (10 ml) was added PTP1B enzyme solution (2 μl) and the mixture was added to each well of a 96-well microtiter plate (100 μl each). A solution of the test compound in DMSO (10 μl) and 2 mM pNPP/the buffer for measurement of the activity (90 μl) were then added to each well, and the absorbance at 405 nm was measured. After keeping at 37° C. for 1 hour, the absorbance was measured again to evaluate a change of the absorbance. Regarding the change of the absorbance in the absence of the test compound as 100%, the concentration of the compound necessary for 50% inhibition (IC50 value) was calculated.

Structure (SMILES)	IC50
O=C(O)/C=C/c1ccc(-c2cccn2-c2ccc(/C=C/C(=O)O)cc2)cc1 [Example 12, (E)-3-[4-(1-{4-[(E)-3-Hydroxy-3-oxo-1-propenyl]phenyl}-1H-pyrrol-2-yl)phenyl]-2-propenoic acid]	3100 nM
Cc1ccc(-c2ccc(O[C@H](Cc3ccccc3)C(=O)O)cc2)n1Cc1cccc(Oc2ccccc2)c1 [Example 54, (2R)-2-{4-[1-(3-phenoxybenzyl)-5-methyl-1H-pyrrol-2-yl]phenoxy}-3-phenylpropanoic acid]	310 nM
CCCCCCCCn1c(C)ccc1-c1ccc(O[C@H](Cc2ccccc2)C(=O)O)cc1 [Example 58, (2R)-2-[4-(5-Methyl-1-octyl-1H-pyrrol-2-yl)phenoxy]-3-phenylpropanoic acid]	340 nM
CCCCCCCCCn1c(C)ccc1-c1ccc(O[C@H](Cc2ccccc2)C(=O)O)cc1 [Example 60, (2R)-2-[4-(5-Methyl-1-nonyl-1H-pyrrol-2-yl)phenoxy]-3-phenylpropanoic acid]	360 nM

Now from value to compound:

IC50	Structure (SMILES)
130 nM	CCCCCCCCCCCCn1c(C)ccc1-c1ccc(O[C@H](Cc2ccccc2)C(=O)O)cc1 [Example 56, (2R)-2-[4-(1-Dodecyl-5-methyl-1H-pyrrol-2-yl)phenoxy]-3-phenylpropanoic acid]
210 nM	CCCCCCCCCCn1c(C)ccc1-c1ccc(O[C@H](Cc2ccccc2)C(=O)O)cc1 [Example 62, (2R)-2-[4-(1-Decyl-5-methyl-1H-pyrrol-2-yl)phenoxy]-3-phenylpropanoic acid]
230 nM	CCCCCCCCCCCn1c(C)ccc1-c1ccc(O[C@H](Cc2ccccc2)C(=O)O)cc1 [Example 64, (2R)-2-[4-(5-Methyl-1-undecyl-1H-pyrrol-2-yl)phenoxy]-3-phenylpropanoic acid]
170 nM	CCCCCCCCCCCCCn1c(C)ccc1-c1ccc(O[C@H](Cc2ccccc2)C(=O)O)cc1 [Example 66, (2R)-2-[4-(5-Methyl-1-tridecyl-1H-pyrrol-2-yl)phenoxy]-3-phenylpropanoic acid]
90 nM	CCCCCCCCc1ccc(-n2c(C)ccc2-c2ccc(O[C@H](Cc3ccccc3)C(=O)O)cc2)cc1 [Example 94, Sodium (2R)-2-([4-[1-(4-octylphenyl)-5-methyl-1H-pyrrol-2-yl]phenyl]oxy)-3-phenylpropanoate]
